In patent US9857356B2, “Muscle chips and methods of use thereof” (President and Fellows of Harvard College, priority 2011, dated 2018):
Bridges are numbered along the chain shown (N, C = ends). Where no end group is shown, it is not given here.

Key:
[1] = tested on: Human umbilical artery vascular smooth muscle; assay: Vascular muscular thin film (vMTF) contractility assay, films on posts; type: cell-based
Method: Human umbilical artery vascular smooth muscle was seeded on thin films at 300 cells/mm^2 in complete M199 medium (M199 supplemented with 10% fetal bovine serum (FBS), penicillin, streptomycin, L-glutamine, glucose and vitamin B12). The tissue was cultured in complete M199 for 48 hours, with a single media change at 24 hours. After 48 hours, the cells were serum starved for an additional 48 hours (M199 supplemented with penicillin, streptomycin, L-glutamine, glucose and vitamin B12, but no FBS).
Muscle thin films were transferred to fresh Tyrode's solution in the testing dish (FIG. 1), which is maintained at 37° C. by a peltier heating system. Films were adhered to Teflon coated posts (FIG. 3) by moving them into close contact using tweezers. The films were imaged using a stereomicroscope outfitted with fluorescent imaging capability. Both brightfield and fluorescent images were captured every thirty seconds. In the experiment shown in FIG. […]
Quantification and analysis of thin film motion was performed using ImageJ (NIH) and MATLAB software. Thresholded fluorescent images (FIG. 4B) were fit to circles whose radii of curvature could be measured (FIG. 4C). Using elasticity theory, the contraction stress necessary to induce the measured changes in curvature were calculated (FIG. 4D). […]

[2] = tested on: vascular smooth muscle cells; assay: Horizontal vascular smooth muscle thin film (hMTF) contractility assay; type: cell-based
Method: FIG. 12 contrasts the use of fluorescent microscopy and the use of brightfield stereo microscopy of vascular smooth muscle (VSM) horizontal MTFs during an assay of the invention as described in Example 5. The top row depicts fluorescent microscopy photographs of VSM horizontal MTFs comprising fluorescent beads embedded in the PDMS film. […] (A) Photographs taken 5 minutes after the start of the experiment, the films are slightly bent up from the glass due to the initial contraction of VSM. […] Polydimethylsiloxane (PDMS) thin film substrates were fabricated via a multi-step spin coating process. Poly(N-isopropylacrylamide) ([…]) (Polysciences, Inc.) was dissolved at 10 wt % in 99.4% 1-butanol (w/v) and was then deposited as a thin layer onto the open glass islands, then the top protective film layer was peeled off. Sylgard 184 (Dow Corning) polydimethylsiloxane (PDMS) elastomer was mixed at a 10:1 base to curing agent ratio doped with 0.1% by volume […] Fluorospheres (Invitrogen), and spun coated on top of the […] coated glass cover slip which was then cured. The next day, the bottom protective film was peeled off. A mask, printed on transparencies was used to cut the glass into desired shapes. MTFs were released from the cover slip once the cells have formed the appropriate 2D microstructure. The MTFs were either cut out by hand, cut out using a robotic system, pre-cut prior to cell incubation. In one specific example of, e.g., horizontal MTF production, the middle section was cut out, so that only six rectangles remained in the area that had […]). Once the Tyrode's solution cools below 35° C., the […] layer transitions from a hydrophobic state to a hydrophilic state and begins to dissolve. As the […] dissolved the middle section cutout was peeled off the substrate with a pair of tweezers. Once the […] dissolves completely, the contraction of the myocytes pulls the MTF (the remaining rectangles) free from the rigid substrate. In the case of the horizontal MTF, rectangles remain with one end partially fixed to the substrate. Actuation and observation of multiple MTFs was carried out in a physiologic solution (e.g., normal Tyrodes solution). The horizontal […]) fabricated with vascular smooth muscle cells in the presence of fluorescent beads were treated with the endothelium-produced vasoconstrictor endothelin-1 (ET-1) followed by the rho-kinase inhibitor HA-1077. […] Quantification and analysis of thin film motion was performed using ImageJ (NIH) and MATLAB software. From the thresholded fluorescent images the length of the projection of the film on the horizontal plane was tracked throughout the contraction and the radius of curvature calculated. Using elasticity theory, the contraction stress necessary to induce the measured changes in curvature were calculated.

Compound | increase in cell generated stress ([1]; vMTFs stimulated with 50 nM ET-1 at time 0) [kPa] | effect on VSM horizontal MTFs (FIG. 12B) ([2]; 20 minutes after addition of the vasoconstrictor) | change in radius of curvature ([2]; hMTFs stimulated with 50 nM ET-1 at time 0) | stress after treatment (residual stress) ([1]; vMTFs, 100 mM HA-1077 following ET-1) [kPa] | effect on VSM horizontal MTFs (FIG. 12C) ([2]; 30 minutes after addition of the rho-kinase inhibitor) | change in radius of curvature ([2]; hMTFs, 100 mM HA-1077 following ET-1)
endothelin-1 (CSCSSLMDKECVYFCHLDIIW; disulfide 1-15, 3-11; ends not checked; UniProt P05305 53-73, looked up) [ET-1, endothelium-produced vasoconstrictor] | 5.06±0.75 | causes the VSM to contract | decrease in their radii of curvature | – | – | –
O=S(=O)(c1cccc2cnccc12)N1CCCNCC1 [HA-1077, fasudil] | – | – | – | 3.1±0.8 | causes the VSM to completely relax | rapid increase in radius of curvature
